Data on 11 compounds can be found in paper PMC12434534, “Synthesis and Antiviral Evaluation of Unexplored Dioxolane-Derived 7‑Deazapurine Nucleoside Analogues against Epstein–Barr Virus (EBV)” (ACS Medicinal Chemistry Letters, 2025).

One data set has as its system HIV-FL. Put plainly: microbe, parasite or virus in culture. As for the experimental part: First, TZM-GFP cells were seeded in the 96-well plate (10 000/well), and after 24 h, selected compounds and HIV FL virus (MOI = 0.1) were added to the plate. […] At 48 h post-infection (hpi), GFP production due to infection was measured by Cytation 5, and a 50% reduction in efficacy (EC50) and cell viability (CC50) were determined using GraphPad software (San Diego, CA, USA, www.graphpad.com). […]
(10,000/well), and after 24 h, selected compounds and HIV FL (MOI=0.1) virus were added to the […]
plate. […] At 48 h post-infection (hpi), the GFP cells were measured by Cytation 5, and a 50% reduction in efficacy (EC50) and cell viability (CC50) was determined using GraphPad software (San Diego, California, www.graphpad.com). […]
(§1) Evaluation of Cytotoxicity: The cytotoxic effects of test compounds for P3HR1 and TZN-GFP cells were determined by CellTiter 96 Non-Radioactive Cell Proliferation assay system (Promega) using either 2,3-Bis-(2-Methoxy-4-nitro-5-sulfophenyl)-2H-tetrazolium-5-carboxanilide, disodium salt (XTT) or 3- (4,5-dimethylthiazol-2-yl)-2,5-diphenyltetrazolium bromide (MTT) methods under the same conditions as the antiviral assay but in the absence virus. Cells were seeded at a density of 1 x 105 (P3HR-1) or 2 x 104 (TZM-GFP) cells per well in 96-well plates and […]

Data set [1] in a line: Cytotoxicity in P3HR-1 cells (XTT or MTT assay). It counts as cell-based. As to conditions: human. Background: Tetrazolium dyes change colour on reduction, which living cells bring about.
Another data set relates to EBV. Put plainly: Anti-EBV assay: reduction of EBV DNA synthesis (qPCR) in TPA-induced P3HR-1 cells. As to conditions: for EC50: human gammaherpesvirus 4, P3HR-1, 120 h, read-out: EC50, Antiviral Activity against EBV (in P3HR-1 Cells); for EC90: human gammaherpesvirus 4, P3HR-1, read-out: EC90, Antiviral Activity against EBV (in P3HR-1 Cells); for SI (CC50/EC50), EBV: selectivity index = CC50/EC50, P3HR-1 cells. As for the experimental part:
The antiviral potency of all synthesized nucleosides was evaluated by in-vitro cell-based assays. P3HR-1 cells were seeded in 24-well plates at a density of 1 × 10^6 cells/mL. EBV replication was induced by adding 25 ng/mL 12-O-tetradecanoylphorbol 13-acetate (TPA) (Sigma–Aldrich, Bornem, Belgium) to the growing cells. The next day, cells were washed and resuspended in fresh medium in the presence or absence of various concentrations of synthesized nucleosides (12–19). Ganciclovir (GCV) was used as antiviral control. On day 5 post-induction, total cellular DNA was extracted (QIAamp DNA kit; Qiagen Benelux B.V, Venlo, The Netherlands), and viral DNA was quantified by quantitative PCR (qPCR) using an ABI Prism 7500 Sequence Detection System (Applied Biosystems, Foster City, CA). Thermocycling conditions for all qPCRs were done following the manufacturer’s instructions. […] The results were obtained as a means from at least three independent experiments. The selectivity index of the compound was determined by the ratio of CC50/EC50. For both efficacy and cytotoxicity assays, the 50% reduction in efficacy (EC50) and cell viability (CC50) was determined using GraphPad software (GraphPad, San Diego, CA, USA, www.graphpad.com).
0.2, 0.04, 0 μM). TPA was removed after 24 h, and the same concentration of compounds was […]
replaced. […]
Real-time PCR detection of viral DNA: EBV DNA was extracted with a QIAGEN Dneasy Blood and Tissue Kit. The DNA volume was 30 μL. DNA concentration (ng/μL) was determined with a Nanophotometer (IMPLEN). The Real -time PCR was performed using QuantiTect Sybr Green PCR Kit. The amplicon was a 71 bp portion of the EBNA1 gene. The primers were […]
(§2) The 20 μL PCR sample contained 100 ng
DNA, 10 μL Universal PCR Master Mix, primer (0.5 uM final concentration), 1 μL BamH I-HF (Restriction Enzyme, BioLabs) and RNase -free water. The PCR program consisted of 1 cycle at 50 °C, 2 minutes of UNG pretreatment, followed by 1 cycle at 95 °C for 15 minutes. Then 40 cycles of 94 °C for 15 seconds, 55 °C for 30 seconds, and 72 °C for 30 seconds were carried out.
as §1

A short description of data set [2]: Cytotoxicity in TZM-GFP cells (XTT or MTT assay). It counts as cell-based. As to conditions: human; concentration reducing cellular viability by 50% after 48 h, XTT or MTT assay; TZM-GFP cells. The protocol:
(§3) plate. […] At 48 h post-infection (hpi), the
(§4) Blood and Tissue Kit. The DNA volume was 30 μL. DNA concentration (ng/μL) was determined with a Nanophotometer (IMPLEN). The Real -time PCR was performed using QuantiTect Sybr […]
(§5) Green PCR Kit. […] The primers were
as §2
(§6) (Restriction Enzyme, BioLabs) and RNase -free water. The PCR program consisted of 1 cycle at […]
(§7) allowed to incubate overnight. On the second day, different concentrations of test compounds were […]
(§8) added to respective cells. Following 4 days of incubation at 37 °C in a CO2 incubator, the MTT or […]
(§9) XTT reagent was added, and the cells were incubated for 3 hours at 37 °C. Subsequently, the […]
(§10) absorbance of the samples was measured using a microplate reader (Biotek). The cytotoxic […]
(§11) concentration (CC50) was determined based on the viability of mock-infected cells. […]

For the next data set, the system named is TZM-GFP cells. The data set can be described thus: Cytotoxicity in TZM-GFP cells (XTT or MTT assay). Format: cell-based. The protocol:
as §3, §4, §5, §2, §6, §7, §8, §9, §10, §11

[3] abbreviates: Human immunodeficiency virus 1, read-out: EC50, Antiviral Activity against HIV-FL (in TZM-GFP Cells).
[4] abbreviates: concentration reducing cellular viability by 50% after 48 h, XTT or MTT assay, P3HR-1 cells, read-out: CC50 (P3HR-1 Cells).

Read-outs that look alike come from different tables or passages of the source. Bounds are passed on as bounds.

One may read the EC50 as the concentration needed to bring the measured effect to its halfway point. For orientation: CC50 means the concentration at which the toxic effect on the cells reaches its halfway point. As a reminder, the EC90 is the concentration needed for an effect of 90%. Take `Nc1ncnc2c1ccn2[C@H]1CO[C@@H](CO)O1` [Compound 12]: the EC50 in the data set on HIV-FL (setting [3]) is 5.85 ± 1.01 µM; in the data set with EBV, greater than 25000 nM. For the same compound, the 50% cytotoxic concentration (CC50) at 48 h in data set [1] (setting [4]) was 91.3 µM; in data set [2] it was greater than 100 µM. Further, in the data set on EBV (P3HR-1 cells), the “antiviral activity against EBV (in words)” value (“antiviral activity” for short) was “inactive”. In the data set with EBV, the 90% effect concentration (EC90) is greater than 25000 nM.

For `Nc1ncnc2c1c(F)cn2[C@H]1CO[C@@H](CO)O1` [Compound 13], the EC50 with HIV-FL (setting [3]) was determined as 3.96 ± 0.39 µM; in the data set with EBV, 1200 ± 1800 nM. The figures for the CC50 at 48 h in data set [1] (setting [4]) and in data set [2] were 71.3 ± 25.6 µM and greater than 100 µM, respectively. In addition, the concentration for an effect of 90% (EC90) in the data set with EBV was determined as 2280 ± 1290 nM.

For the compound `Nc1ncnc2c1c(Cl)cn2[C@H]1CO[C@@H](CO)O1` [Compound 14], the concentration for a half-maximal effect (EC50) amounted to 28.7 ± 0.45 µM with HIV-FL (setting [3]) and 12500 ± 800 nM in the data set with EBV. Besides, the values for the half-maximal cytotoxic concentration (CC50) at 48 h in data set [1] (setting [4]) and in data set [2] were greater than 100 µM and 88 µM, respectively. Besides, the 90% effect concentration (EC90) in the data set on EBV is greater than 25000 nM.

For `Nc1ncnc2c1c(Br)cn2[C@H]1CO[C@@H](CO)O1` [Compound 15, 7-Bromo-deazapurine-D-dioxolane nucleoside], the 50% effective concentration (EC50) with HIV-FL (setting [3]) amounted to 20.8 ± 0.25 µM. Besides, in data set [1] (setting [4]), the CC50 at 48 h came to 49.9 µM. Besides, in the data set on EBV (EC50 compared with GCV, P3HR-1 cells), the “potency against EBV relative to ganciclovir (times more potent)” value came to 14. Further, the “antiviral activity” value in the data set on EBV (P3HR-1 cells) is on record as “potent anti-EBV activity”. Besides, in the data set on EBV, the concentration for a half-maximal effect (EC50) turned out to be 170 nM; the EC90 was determined as 540 ± 360 nM; the “SI (CC50/EC50), EBV” value turned out to be 294. Moreover, the 50% cytotoxic concentration (CC50) at 48 h in data set [2] was 41.9 µM.

`Nc1ncnc2c1c(I)cn2[C@H]1CO[C@@H](CO)O1` [Compound 16]: the 50% effective concentration (EC50) in the data set with HIV-FL (setting [3]) was determined as 10.3 ± 0.39 µM. Moreover, the CC50 at 48 h in data set [1] (setting [4]) came out at 21.2 µM. Moreover, in the data set with EBV (P3HR-1 cells), the “antiviral activity” value is “potent anti-EBV activity”. Further, in the data set on EBV, the EC50 was 470 ± 200 nM; the EC90 came out at 1500 ± 90 nM; the “SI (CC50/EC50), EBV” value is on record as 45. Half-maximal cytotoxicity in data set [2] (CC50 at 48 h) was put at 11.9 µM.

Regarding `Nc1nc(N)c2ccn([C@H]3CO[C@@H](CO)O3)c2n1` [Compound 17], the 50% cytotoxic concentration (CC50) at 48 h in data set [1] (setting [4]) was greater than 100 µM. For the same compound, in the data set on EBV, the EC50 was 11900 ± 300 nM and the “SI (CC50/EC50), EBV” value was greater than 8.

Consider `Nc1nc(F)nc2c1ccn2[C@H]1CO[C@@H](CO)O1` [Compound 18], for which the CC50 at 48 h in data set [1] (setting [4]) worked out at 91.7 µM. Moreover, in the data set with EBV, the half-maximal effective concentration (EC50) worked out at 15500 ± 3700 nM; the 90% effect concentration (EC90) is greater than 23900 nM; the “SI (CC50/EC50), EBV” value is recorded as 6.

On to `CNc1nc(N)nc2c1ccn2[C@H]1CO[C@@H](CO)O1` [Compound 19], for which the 50% cytotoxic concentration (CC50) at 48 h in data set [1] (setting [4]) turned out to be 13.3 µM. Besides, in the data set with EBV (P3HR-1 cells), the “antiviral activity” value was “inactive”. The EC50 in the data set with EBV is greater than 25000 nM.

For `Nc1nc(O)c2ncn(COC(CO)CO)c2n1` [GCV, ganciclovir, reference compound], in data set [1], the CC50 at 48 h was greater than 100 µM. In the data set on EBV, the 50% effective concentration (EC50) turned out to be 2500 ± 220 nM; the concentration for an effect of 90% (EC90) stood at 16200 ± 210 nM; the “SI (CC50/EC50), EBV” value is listed as greater than 40.

For `C=Cc1cn([C@@H]2CO[C@H](CO)O2)c(=O)[nH]c1=O` [L-HDVD, reference compound], the CC50 at 48 h in data set [1] (setting [4]) was greater than 100 µM. In the data set on EBV, the EC50 was determined as 120 ± 10 nM; the EC90 came out at 520 ± 40 nM; the “SI (CC50/EC50), EBV” value is listed as greater than 833.

Regarding `Cc1[nH]c2ccccc2c1CC(=O)N[C@@H](Cc1ccccc1)C(=O)N(C)c1ccccc1` [PF-74, reference compound], the EC50 with HIV-FL (read-out: EC50, Antiviral Activity against HIV-FL (in TZM-GFP Cells), 48 hpi, MOI = 0.1, TZM-GFP cells, mean of at least three experiments) amounted to 0.6 ± 0.05 µM. For the same compound, the “SI (CC50/EC50), HIV-FL” value with HIV-FL (selectivity index = CC50/EC50, TZM-GFP cells) is given as greater than 166. In the data set on TZM-GFP cells, this compound displayed a half-maximal cytotoxic concentration (CC50) greater than 100 µM.
